The values that follow come from patent US7005539B2, “Ferulic acid dimers and their pharmaceutically acceptable salts, their preparation and use thereof for treating dementia” (Korea Institute of Science and Technology, priority 2001, dated 2006).

The structures appear in SMILES notation.

Data set [1] relates to mice administered with beta-amyloid. The data set is described as follows: passive avoidance test in mice given beta-amyloid into the cerebral ventricle. In kind it is in vivo, mouse. The note with it: group C (dimer and beta-amyloid) compared with group B (beta-amyloid (1–42) only); 24 h after training; maximum 300 seconds; FIG. 1. On the procedure: Four groups of 10 mice aged 4–5 weeks, weighing 20–25 g, were administered with samples dissolved in 1% DMSO and 1% CMC using Sonde once per 1 day(samples: A-reverse phase betaamyloid, B-betaamyloid, C-ferulic acid dimer of example 1 and betaamyloid, D-ferulic acid and betaamyloid). After injection of […] sample to the celebral ventricle on each of 3 consecutive days, passive avoidance test on days 1 and 2, and Y-maze test on days 3 and 4 following the last injection were conducted. All data attained by the average mean of 10 mice each group.
Injection into the cerebral ventricle was performed according to the method described in Laursen & Belknap, J. Pharmacol. Methods. 1986, 16, 355. […]
In order to examine the learning and memory-retention ability of a mouse, a passive avoidance test was carried out in accordance with the method described in Song et al., J. Neurochem., 1998, 71, 875. […] Twenty-four hours after the training, the mouse was put in the light room again and the time it took to enter the dark room was measured as a passive avoidance time. The maximum restriction time was set at 300 seconds, i. e., in cases where the mouse took more than 300 seconds to enter the dark room, the passive avoidance time was determined to be 300 seconds.

Another data set deals with Sprague-Dawley rats. The data set is described as follows: single-dose oral toxicity test in rats. The note with it: for LD50: oral, one time, in corn oil, observed 7 days. In kind it is in vivo, rat. As to the method:
Twenty female and twenty male Sprague-Dawley rats aged 4 weeks were divided into four groups including 5 female and 5 male rats, after being raised in a vivarium of temperature 22±3° C., relative humidity 50±10%, illumination 150–300 Lux for 1 week.
The ferulic acid dimers prepared in Example 1 was dissolved in corn oil, and the rats of 4 groups were orally administered with the solutions at a dose of 300, 1,000, 3,000 and 10,000 mg/kg one time. For 7 days after administration, changes of general symptoms and occurrence of death were observed. In addition, the rats were killed on day 7 after administration, dissected, and internal organs were examined with unaided eye. From the extract administration day, daily weight changes were measured and thus the weight decrease of animals attributed to ferulic acid dimers was observed.

For a further data set, the system named is cynuclein. As to the kind of experiment: T7 phage display selection of human brain cDNA library proteins on immobilized ferulic acid (chemical genomics). The class given is binding. The following applies: screening repeated 3–4 times; identified by sequencing and BLAST. The text has this:
(§1) In order to study a functional mechanism of ferulic acid dimers, the present inventors conducted an experiment to screen from protein libraries proteins conjugatable with ferulic acid by use the method of chemical genomics. To this end, ferulic acid was immobilized onto a solid substrate and treated with T7 phages having proteins translated from a human brain and cDNA library on their surface to select the proteins bound to the immobilized ferulic acid. For selection of the proteins with the best affinity for ferulic acid, the screening procedure was repeated 3–4 times. Base sequencing of the cDNA selected allowed the amino acid sequences of the corresponding proteins to be inferred. […] Of the proteins thus identified, cynuclein and plasophylin attracted particular attention. These two proteins, known to be directly or indirectly associated with formation of intercelluar or intracelluar plaque, were therefore found to be inhibited from forming plaques by ferulic acid.

A further data set relates to plasophylin. The data set is described as above. The class given is binding. The note with it: screening repeated 3–4 times; identified by sequencing and BLAST.
Text: as §1

The next data set relates to mouse. The note with it: separated ferulic acid monomer administered to mouse; cited from earlier work.

For the compound `O=C(O)C=Cc1ccc(O)c(OCCOc2cc(C=CC(=O)O)ccc2O)c1` [Example 1, 1,2-[2-hydroxy-5-(2-carboxyvinyl)]phenoxyethane], the step-through latency result in data set [1] is “significantly higher”. The values for the LD50 in the data set with Sprague-Dawley rats (females) and with Sprague-Dawley rats (males) were 2,804 mg/kg and 3,722 mg/kg, respectively. For the same compound, in the data set with Sprague-Dawley rats (groups administered with 1,000 mg/kg or less), the body weight result is “not decreased”. Also, the “pathological changes seen with naked eye on dissection” value with Sprague-Dawley rats (surviving animals, groups administered 1,000 mg/kg or less, day 7) was “No pathological changes”.

Regarding `COc1cc(/C=C/C(=O)O)ccc1O` [ferulic acid, 4-hydroxy-3-methoxy cinnamic acid], the “protein selected as bound to immobilized ferulic acid” value with cynuclein and with plasophylin was “specifically bound” in each case. Further, in the data set with mouse, the “memory-retention ability of mouse” value is listed as “considerably increased”.
